The text below walks through data of ChEMBL document CHEMBL1126726 (J Med Chem, 1993).

For assay [1], the species on record is Oryctolagus cuniculus. Kind of assay: (§1) Intrinsic activity was measured as maximum contraction relative to 5-HT in rabbit basilar artery. Type of assay: functional.
For assay [2], the species on record is Canis familiaris. The experiment in a line: Intrinsic activity was measured as maximum contraction relative to 5-HT in dog saphenous vein. The assay is classed as functional, Canis lupus familiaris.
Assay [3] in a line: as §1. The assay is classed as functional, Oryctolagus cuniculus.
Assay [4] concerns the target T1, 5-hydroxytryptamine receptor 2C (Rattus norvegicus) (UniProt P08909).
T1 sequence (whole entry): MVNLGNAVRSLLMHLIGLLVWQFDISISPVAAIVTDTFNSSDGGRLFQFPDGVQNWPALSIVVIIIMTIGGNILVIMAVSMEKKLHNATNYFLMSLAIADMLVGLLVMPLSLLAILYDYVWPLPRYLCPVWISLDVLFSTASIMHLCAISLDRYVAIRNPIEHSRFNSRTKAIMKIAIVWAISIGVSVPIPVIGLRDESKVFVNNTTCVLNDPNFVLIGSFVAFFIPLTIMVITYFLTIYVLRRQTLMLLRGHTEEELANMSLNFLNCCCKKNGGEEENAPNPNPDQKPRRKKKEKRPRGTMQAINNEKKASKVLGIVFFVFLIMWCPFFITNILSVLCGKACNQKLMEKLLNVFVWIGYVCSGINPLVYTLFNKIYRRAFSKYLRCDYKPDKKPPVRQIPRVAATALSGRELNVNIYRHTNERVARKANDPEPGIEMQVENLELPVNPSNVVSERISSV

The target in assay [5] is Serotonin 2 (5-HT2) receptor (Homo sapiens) (UniProt P41595+P28223+P28335).
Serotonin 2 (5-HT2) receptor (Homo sapiens), sequence (P28223 whole entry, looked up): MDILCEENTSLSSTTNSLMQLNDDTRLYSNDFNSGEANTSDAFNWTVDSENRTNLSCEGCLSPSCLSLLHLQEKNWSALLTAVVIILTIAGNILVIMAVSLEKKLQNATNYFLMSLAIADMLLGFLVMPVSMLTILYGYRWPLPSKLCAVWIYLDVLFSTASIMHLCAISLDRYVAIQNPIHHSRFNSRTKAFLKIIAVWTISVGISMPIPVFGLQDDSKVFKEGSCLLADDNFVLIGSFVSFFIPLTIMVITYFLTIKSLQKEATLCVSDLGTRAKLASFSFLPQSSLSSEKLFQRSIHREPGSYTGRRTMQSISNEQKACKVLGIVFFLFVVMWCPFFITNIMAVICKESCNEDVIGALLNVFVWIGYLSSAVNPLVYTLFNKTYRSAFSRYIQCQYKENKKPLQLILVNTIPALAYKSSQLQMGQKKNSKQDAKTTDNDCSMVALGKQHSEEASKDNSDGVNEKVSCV
Serotonin 2 (5-HT2) receptor (Homo sapiens), sequence (P28335 whole entry, looked up): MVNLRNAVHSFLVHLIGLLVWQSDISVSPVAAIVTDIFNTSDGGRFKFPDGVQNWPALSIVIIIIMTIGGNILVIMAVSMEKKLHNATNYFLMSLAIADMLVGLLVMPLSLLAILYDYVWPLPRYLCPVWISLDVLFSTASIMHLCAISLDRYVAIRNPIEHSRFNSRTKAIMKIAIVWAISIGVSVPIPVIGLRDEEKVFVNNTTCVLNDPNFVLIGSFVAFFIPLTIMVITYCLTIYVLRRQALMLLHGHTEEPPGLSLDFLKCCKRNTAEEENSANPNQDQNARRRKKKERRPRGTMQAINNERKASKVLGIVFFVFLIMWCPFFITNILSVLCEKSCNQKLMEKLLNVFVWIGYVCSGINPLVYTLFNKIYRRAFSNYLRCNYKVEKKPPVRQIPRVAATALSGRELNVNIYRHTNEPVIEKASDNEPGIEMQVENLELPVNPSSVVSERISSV
Serotonin 2 (5-HT2) receptor (Homo sapiens), sequence (P41595 whole entry, looked up): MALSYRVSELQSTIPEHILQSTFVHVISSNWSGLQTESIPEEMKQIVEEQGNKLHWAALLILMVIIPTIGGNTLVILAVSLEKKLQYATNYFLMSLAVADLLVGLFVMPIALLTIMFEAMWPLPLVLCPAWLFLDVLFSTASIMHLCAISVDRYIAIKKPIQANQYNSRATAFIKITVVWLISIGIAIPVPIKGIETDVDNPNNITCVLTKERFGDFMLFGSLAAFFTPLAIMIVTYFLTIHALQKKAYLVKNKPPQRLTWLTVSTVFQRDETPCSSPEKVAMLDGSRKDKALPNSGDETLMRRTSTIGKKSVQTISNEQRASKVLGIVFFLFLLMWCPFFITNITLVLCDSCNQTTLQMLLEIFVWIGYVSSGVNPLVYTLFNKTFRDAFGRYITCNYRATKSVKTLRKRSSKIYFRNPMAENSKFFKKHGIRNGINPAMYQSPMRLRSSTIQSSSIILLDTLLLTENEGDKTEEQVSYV
Assay [6] deals with Serotonin 2 (5-HT2) receptor (Rattus norvegicus) (UniProt P30994+P08909+P14842). As to conditions: Cortex.
Serotonin 2 (5-HT2) receptor (Rattus norvegicus), sequence (P14842 whole entry, looked up, one chain of several): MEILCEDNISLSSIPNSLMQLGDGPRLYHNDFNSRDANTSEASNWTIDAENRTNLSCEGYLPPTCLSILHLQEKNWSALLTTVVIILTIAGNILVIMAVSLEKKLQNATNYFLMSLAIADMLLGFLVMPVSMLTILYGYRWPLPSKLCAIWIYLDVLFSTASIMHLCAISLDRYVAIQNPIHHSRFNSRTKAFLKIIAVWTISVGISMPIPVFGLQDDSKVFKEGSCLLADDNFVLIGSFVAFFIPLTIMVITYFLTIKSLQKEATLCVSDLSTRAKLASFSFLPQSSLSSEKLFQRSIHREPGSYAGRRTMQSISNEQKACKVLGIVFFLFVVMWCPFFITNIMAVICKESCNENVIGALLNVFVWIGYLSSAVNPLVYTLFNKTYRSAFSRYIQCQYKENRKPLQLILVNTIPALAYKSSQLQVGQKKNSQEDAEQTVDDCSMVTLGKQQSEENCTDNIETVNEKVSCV
Serotonin 2 (5-HT2) receptor (Rattus norvegicus), sequence (P30994 whole entry, looked up, one chain of several): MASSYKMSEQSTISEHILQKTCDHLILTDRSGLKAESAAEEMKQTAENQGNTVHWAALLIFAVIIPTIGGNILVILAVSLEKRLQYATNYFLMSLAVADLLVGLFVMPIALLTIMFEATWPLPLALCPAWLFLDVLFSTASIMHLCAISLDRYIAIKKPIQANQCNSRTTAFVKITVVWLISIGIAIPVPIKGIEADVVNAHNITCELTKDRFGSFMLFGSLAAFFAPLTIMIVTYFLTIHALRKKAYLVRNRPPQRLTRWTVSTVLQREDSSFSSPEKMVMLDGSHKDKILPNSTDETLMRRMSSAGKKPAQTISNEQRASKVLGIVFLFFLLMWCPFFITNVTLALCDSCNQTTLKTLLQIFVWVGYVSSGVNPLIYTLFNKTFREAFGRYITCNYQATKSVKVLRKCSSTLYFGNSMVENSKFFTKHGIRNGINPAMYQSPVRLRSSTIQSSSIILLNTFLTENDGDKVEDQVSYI
The species entered for assay [7] is Oryctolagus cuniculus. Kind of assay: In vitro evaluation in rabbit basilar artery for maximal response. Type of assay: functional, organism-based.
The species named for assay [8] is Canis familiaris. Kind of assay: In vitro evaluation in the dog saphenous vein for maximal response. Type of assay: functional, organism-based. As to conditions: Canis lupus familiaris.

As for `CCN(CC)C(=O)N[C@H]1C=C2c3cccc4[nH]cc(c34)C[C@H]2N(C)C1` [LISURIDE], the IA in the assay filed under Oryctolagus cuniculus [1] and in the assay listed under Canis familiaris [2] was 0.73 in each case.

Regarding `NCCc1c[nH]c2ccc(O)cc12` [SEROTONIN], the IA (in assay [3]; in the assay filed under Canis familiaris [2]) was 1 in each case.

For orientation: pKD means the negative decadic logarithm of the KD, by convention in mol/L. Read a low pKD as a large KD. For the compound `NCCc1c[nH]c2ccc(C(N)=O)cc12`, the pKD was 6.2 in assay [4] and 4.7 in assay [5].

One may read the EC50 as the concentration needed to bring the measured effect to its halfway point. The low end stands for greater potency, the high end for weaker potency. Take `CNS(=O)(=O)Cc1ccc2[nH]cc(CCN(C)C)c2c1`: the IA is reported as 0.74 in the assay filed under Oryctolagus cuniculus [1] and 0.78 in the assay listed under Canis familiaris [2]. Further, the pKD in assay [6] was greater than 4. In addition, the EC50 in the assay filed under Oryctolagus cuniculus [7] came to 2400 nM; in the assay listed under Canis familiaris [8] it was 400 nM.
